Values quoted from earlier work as cited in patent US20250275939A1, “CO-CRYSTALS” (UNIVERSITY OF IOWA RESEARCH FOUNDATION, priority 2024, published 2025).
Where two headings read alike, the source gives them in different places. Blank lines part the entries; values can stand above or below the compound they belong to. Peptide text beside a SMILES is read from it.

Key:
[1] = in vivo
[2] = in vivo; remark: listed apart in the source
[3] = humans, adults and children
[4] = humans, after a single oral dose

Compound: C1N2CN3CN1CN(C2)C3 [Methenamine]
serum enzyme elevations / clinically apparent acute liver injury [1]: has not been linked to serum enzyme elevations or to instances of clinically apparent acute liver injury

penetration of the blood-brain barrier [2]: can penetrate the blood-brain barrier
Compound: Cc1nc(C)c(C)nc1C [TMP, tetramethyl pyrazine]

acceptable daily intake ([3]; Europe): 40 mg/kg bodyweight
acceptable daily intake ([3]; United States): 50 mg/kg bodyweight
Compound: COC(=O)[C@H](Cc1ccccc1)NC(=O)[C@@H](N)CC(=O)O [aspartame, Aspartame] (H-Asp-Phe-OMe)

oral bioavailability [4]: ~2%
Compound: O=c1c(O)c(-c2ccc(O)c(O)c2)oc2cc(O)cc(O)c12 [quercetin, Quercetin]
